Reference: ChEMBL document CHEMBL4043168, “The design and SAR of a novel series of 2-aminopyridine based LRRK2 inhibitors” (Bioorg Med Chem Lett, 2017)

Tests used:
[1] = biological target: Serine/threonine-protein kinase Nek7 (Homo sapiens) (UniProt Q8TDX7); assay: Inhibition of NEK7 conserved Lys1 (AACLLDGVPVALKK) in human PBMC at 0.1 uM
[2] = biological target: Leucine-rich repeat serine/threonine-protein kinase 2 (Homo sapiens, UniProt Q5S007); assay: Inhibition wild type LRRK2 (unknown origin) Ser935 phosphorylation in HEK293 cells; type: cell-based
[3] = biological target: T1, STE20-related kinase adapter protein alpha (Homo sapiens) (UniProt Q7RTN6); assay: Inhibition of STLK5 conserved Lys2 (SVKASHILISVDGK) in human PBMC at 0.1 uM
T1 sequence (whole entry): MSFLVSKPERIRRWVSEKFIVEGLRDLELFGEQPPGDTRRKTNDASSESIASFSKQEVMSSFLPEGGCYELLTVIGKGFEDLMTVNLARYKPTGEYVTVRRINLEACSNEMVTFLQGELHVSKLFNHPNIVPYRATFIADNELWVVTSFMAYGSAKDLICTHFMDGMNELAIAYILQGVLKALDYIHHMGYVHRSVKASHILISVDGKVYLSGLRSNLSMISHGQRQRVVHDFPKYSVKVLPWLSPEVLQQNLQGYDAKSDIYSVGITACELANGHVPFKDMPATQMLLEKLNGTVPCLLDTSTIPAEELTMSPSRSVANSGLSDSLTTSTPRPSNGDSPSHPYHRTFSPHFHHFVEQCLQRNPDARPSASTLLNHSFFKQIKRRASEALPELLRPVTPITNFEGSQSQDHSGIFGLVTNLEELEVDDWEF

[4] = biological target: T2, Phosphatidylinositol 4,5-bisphosphate 3-kinase catalytic subunit delta isoform (Homo sapiens) (UniProt O00329); assay: Inhibition of PIK3CD ATP binding site (VNWLAHNVSKDNRQ) in human PBMC at 0.1 uM
T2 sequence (whole entry): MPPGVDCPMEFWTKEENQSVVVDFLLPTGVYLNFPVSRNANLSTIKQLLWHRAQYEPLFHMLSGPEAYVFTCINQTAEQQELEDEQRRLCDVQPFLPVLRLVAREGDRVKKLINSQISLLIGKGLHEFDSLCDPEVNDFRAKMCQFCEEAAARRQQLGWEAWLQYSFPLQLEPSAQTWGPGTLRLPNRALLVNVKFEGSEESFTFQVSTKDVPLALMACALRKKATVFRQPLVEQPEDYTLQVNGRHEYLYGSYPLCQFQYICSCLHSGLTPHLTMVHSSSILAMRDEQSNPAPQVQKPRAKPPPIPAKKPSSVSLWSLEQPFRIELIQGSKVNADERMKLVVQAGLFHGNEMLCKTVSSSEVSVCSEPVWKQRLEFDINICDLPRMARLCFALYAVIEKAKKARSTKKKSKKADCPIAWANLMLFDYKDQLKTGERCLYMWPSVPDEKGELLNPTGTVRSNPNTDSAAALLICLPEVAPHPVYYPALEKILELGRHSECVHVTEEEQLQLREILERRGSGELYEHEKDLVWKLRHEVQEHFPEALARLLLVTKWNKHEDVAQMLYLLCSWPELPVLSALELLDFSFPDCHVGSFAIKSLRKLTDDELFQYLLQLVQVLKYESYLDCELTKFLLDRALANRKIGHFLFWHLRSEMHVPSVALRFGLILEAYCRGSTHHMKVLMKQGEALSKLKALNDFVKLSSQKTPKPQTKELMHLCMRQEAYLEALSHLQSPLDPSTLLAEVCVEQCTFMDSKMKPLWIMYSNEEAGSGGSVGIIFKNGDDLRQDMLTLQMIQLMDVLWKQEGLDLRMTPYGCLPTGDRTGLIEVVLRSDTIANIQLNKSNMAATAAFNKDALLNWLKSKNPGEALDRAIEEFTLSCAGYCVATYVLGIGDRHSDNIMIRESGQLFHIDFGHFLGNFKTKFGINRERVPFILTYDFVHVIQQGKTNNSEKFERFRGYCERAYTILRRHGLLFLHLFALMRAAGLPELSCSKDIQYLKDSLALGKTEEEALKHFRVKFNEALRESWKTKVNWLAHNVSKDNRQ

[5] = biological target: Serine/threonine-protein kinase TBK1 (Homo sapiens) (UniProt Q9UHD2); assay: Inhibition of TBK1 conserved Lys2 (DIKPGNIMR) in human PBMC at 0.1 uM
[6] = biological target: Phosphatidylinositol 5-phosphate 4-kinase type-2 gamma (Homo sapiens) (UniProt Q8TBX8); assay: Inhibition of PIP4K2C ATP binding site (TLVIKEVSSEDIADMHSNLSNYHQYIVK) in human PBMC at 1 uM
[7] = biological target: Cyclin-dependent kinase 5 (Homo sapiens) (UniProt Q00535); assay: Inhibition of CDK5 labeling at conserved Lys2 (DLKPQNLLINR) in human PBMC at 1 uM
[8] = biological target: T3, Inhibitor of nuclear factor kappa-B kinase subunit epsilon (Homo sapiens) (UniProt Q14164); assay: Inhibition of IKKe conserved Lys2 (DIKPGNIMR) in human PBMC at 1 uM
T3 sequence (whole entry): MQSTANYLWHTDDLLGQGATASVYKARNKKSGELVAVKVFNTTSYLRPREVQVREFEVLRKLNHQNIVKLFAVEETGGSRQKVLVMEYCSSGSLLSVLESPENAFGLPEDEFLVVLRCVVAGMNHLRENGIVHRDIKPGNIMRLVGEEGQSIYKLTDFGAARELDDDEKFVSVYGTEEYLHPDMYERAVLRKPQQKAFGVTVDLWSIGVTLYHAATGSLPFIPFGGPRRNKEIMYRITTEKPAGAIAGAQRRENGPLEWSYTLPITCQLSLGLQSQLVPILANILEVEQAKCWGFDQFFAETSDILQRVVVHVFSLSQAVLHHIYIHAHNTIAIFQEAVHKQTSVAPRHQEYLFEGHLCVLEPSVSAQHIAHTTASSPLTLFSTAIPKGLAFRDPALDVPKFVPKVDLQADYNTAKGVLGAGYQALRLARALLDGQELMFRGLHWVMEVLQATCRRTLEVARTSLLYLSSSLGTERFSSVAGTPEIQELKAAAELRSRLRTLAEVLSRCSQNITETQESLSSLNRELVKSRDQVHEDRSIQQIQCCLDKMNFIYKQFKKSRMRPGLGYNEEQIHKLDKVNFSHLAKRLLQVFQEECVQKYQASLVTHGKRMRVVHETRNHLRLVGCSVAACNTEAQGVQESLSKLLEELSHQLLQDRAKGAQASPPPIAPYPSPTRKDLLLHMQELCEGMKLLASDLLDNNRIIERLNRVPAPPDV

[9] = biological target: Cyclin-dependent kinase 17 (Homo sapiens) (UniProt Q00537); assay: Inhibition of PCTAIRE2 conserved Lys2 (DLKPQNLLINEK) in human PBMC at 0.1 uM
[10] = biological target: Serine/threonine-protein kinase Chk2 (Homo sapiens) (UniProt O96017); assay: Inhibition of CHK2 labeling at conserved Lys2 (DLKPENVLLSSQEEDCLIK) in human PBMC at 1 uM
Serine/threonine-protein kinase Chk2 (Homo sapiens), sequence (O96017 whole entry): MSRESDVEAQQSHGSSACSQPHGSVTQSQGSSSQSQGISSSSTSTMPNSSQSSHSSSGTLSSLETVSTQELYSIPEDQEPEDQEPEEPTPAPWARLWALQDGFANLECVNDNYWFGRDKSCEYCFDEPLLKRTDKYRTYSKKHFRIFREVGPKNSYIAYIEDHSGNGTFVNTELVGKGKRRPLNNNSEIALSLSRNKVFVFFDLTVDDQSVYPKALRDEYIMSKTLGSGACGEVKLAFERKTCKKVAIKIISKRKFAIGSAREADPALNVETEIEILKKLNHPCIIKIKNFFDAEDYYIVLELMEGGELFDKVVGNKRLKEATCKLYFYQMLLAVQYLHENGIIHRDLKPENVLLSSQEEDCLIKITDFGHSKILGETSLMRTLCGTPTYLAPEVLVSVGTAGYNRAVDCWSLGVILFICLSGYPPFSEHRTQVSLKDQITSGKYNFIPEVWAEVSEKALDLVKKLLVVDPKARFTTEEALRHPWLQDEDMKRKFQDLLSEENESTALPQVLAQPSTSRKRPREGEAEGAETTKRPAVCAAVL

Serine/threonine-protein kinase Nek7 (Homo sapiens), sequence (Q8TDX7 whole entry, looked up): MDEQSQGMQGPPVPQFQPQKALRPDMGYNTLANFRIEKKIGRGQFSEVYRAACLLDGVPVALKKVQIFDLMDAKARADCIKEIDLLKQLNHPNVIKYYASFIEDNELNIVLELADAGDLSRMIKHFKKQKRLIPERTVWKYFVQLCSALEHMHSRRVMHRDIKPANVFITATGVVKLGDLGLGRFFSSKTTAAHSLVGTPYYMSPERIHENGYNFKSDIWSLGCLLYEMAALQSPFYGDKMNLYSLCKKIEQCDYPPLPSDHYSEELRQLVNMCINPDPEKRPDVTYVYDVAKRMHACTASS
Cyclin-dependent kinase 17 (Homo sapiens), sequence (Q00537 whole entry, looked up): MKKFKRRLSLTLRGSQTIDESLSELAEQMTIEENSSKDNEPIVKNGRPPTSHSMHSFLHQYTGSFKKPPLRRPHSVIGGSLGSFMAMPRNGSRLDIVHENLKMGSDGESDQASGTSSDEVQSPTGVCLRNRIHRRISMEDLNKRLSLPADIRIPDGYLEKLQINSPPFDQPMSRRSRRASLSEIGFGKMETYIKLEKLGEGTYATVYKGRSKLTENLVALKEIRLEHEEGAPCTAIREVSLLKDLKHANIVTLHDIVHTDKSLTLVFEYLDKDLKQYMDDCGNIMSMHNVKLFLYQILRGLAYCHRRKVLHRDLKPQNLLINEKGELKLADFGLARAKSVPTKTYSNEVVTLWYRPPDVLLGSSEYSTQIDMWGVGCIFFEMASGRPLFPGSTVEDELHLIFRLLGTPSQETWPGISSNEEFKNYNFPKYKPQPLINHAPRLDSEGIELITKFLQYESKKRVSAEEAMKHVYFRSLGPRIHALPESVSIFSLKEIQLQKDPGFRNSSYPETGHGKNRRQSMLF
Leucine-rich repeat serine/threonine-protein kinase 2, sequence (Q5S007 whole entry): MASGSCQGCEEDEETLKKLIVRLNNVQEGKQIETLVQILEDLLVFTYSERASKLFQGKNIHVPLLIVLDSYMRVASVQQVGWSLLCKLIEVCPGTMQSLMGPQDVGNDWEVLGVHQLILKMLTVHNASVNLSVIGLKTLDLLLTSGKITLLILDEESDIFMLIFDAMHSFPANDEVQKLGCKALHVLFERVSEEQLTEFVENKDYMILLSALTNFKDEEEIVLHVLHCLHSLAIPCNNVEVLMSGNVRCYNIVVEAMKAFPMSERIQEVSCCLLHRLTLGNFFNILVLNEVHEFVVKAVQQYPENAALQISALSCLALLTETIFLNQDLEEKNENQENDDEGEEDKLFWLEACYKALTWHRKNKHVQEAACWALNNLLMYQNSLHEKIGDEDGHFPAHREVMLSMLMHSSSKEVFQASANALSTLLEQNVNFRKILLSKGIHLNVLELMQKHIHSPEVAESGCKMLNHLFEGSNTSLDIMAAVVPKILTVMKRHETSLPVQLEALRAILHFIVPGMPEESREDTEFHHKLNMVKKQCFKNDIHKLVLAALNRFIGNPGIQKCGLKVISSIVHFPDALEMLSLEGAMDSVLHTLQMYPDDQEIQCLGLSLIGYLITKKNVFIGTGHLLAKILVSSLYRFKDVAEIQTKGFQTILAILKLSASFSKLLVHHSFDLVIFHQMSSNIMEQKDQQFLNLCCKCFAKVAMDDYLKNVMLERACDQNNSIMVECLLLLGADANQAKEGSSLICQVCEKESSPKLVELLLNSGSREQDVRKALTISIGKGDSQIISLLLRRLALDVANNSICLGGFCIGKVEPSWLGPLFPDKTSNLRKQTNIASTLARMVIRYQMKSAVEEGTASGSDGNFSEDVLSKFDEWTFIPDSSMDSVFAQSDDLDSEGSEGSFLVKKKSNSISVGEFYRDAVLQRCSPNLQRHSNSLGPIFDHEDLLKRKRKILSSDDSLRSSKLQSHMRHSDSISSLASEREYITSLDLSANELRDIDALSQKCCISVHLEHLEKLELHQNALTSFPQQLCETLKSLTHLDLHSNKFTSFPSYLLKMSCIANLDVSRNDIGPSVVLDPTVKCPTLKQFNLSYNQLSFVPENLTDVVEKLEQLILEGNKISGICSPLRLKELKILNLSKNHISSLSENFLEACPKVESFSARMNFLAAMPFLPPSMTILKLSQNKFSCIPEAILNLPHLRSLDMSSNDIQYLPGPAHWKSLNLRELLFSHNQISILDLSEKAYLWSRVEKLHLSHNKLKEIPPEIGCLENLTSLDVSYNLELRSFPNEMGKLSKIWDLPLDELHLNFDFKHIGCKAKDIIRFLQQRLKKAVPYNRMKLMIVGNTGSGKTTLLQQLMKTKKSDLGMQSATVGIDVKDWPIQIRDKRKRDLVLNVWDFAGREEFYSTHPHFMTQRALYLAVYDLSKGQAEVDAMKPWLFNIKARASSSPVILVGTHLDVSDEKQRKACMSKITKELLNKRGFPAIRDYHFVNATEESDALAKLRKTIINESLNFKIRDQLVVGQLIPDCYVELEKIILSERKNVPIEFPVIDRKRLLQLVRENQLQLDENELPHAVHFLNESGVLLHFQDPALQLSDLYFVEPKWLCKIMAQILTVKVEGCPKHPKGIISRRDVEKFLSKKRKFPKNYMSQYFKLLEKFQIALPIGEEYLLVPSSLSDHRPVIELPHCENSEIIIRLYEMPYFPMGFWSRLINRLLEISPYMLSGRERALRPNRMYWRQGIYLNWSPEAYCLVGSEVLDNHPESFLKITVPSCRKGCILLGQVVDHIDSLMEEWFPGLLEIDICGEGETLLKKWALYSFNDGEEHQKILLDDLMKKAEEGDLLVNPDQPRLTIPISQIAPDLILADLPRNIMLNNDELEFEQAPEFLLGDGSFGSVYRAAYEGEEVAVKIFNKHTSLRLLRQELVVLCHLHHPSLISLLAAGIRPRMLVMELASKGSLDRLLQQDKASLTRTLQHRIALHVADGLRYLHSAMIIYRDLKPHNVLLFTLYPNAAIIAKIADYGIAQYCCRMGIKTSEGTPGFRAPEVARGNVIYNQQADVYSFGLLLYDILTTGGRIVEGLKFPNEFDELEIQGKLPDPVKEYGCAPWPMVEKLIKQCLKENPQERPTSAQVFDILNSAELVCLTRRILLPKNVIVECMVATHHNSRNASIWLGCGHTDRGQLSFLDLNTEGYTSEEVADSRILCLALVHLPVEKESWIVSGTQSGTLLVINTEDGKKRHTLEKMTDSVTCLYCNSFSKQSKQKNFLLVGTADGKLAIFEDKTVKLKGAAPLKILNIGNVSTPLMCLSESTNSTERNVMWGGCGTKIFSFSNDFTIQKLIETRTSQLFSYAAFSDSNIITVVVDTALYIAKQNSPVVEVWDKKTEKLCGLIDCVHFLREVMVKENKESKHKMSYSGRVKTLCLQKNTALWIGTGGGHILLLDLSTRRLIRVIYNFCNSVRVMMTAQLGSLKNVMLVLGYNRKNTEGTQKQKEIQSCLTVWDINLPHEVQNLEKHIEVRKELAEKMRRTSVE
Serine/threonine-protein kinase TBK1 (Homo sapiens), sequence (Q9UHD2 whole entry): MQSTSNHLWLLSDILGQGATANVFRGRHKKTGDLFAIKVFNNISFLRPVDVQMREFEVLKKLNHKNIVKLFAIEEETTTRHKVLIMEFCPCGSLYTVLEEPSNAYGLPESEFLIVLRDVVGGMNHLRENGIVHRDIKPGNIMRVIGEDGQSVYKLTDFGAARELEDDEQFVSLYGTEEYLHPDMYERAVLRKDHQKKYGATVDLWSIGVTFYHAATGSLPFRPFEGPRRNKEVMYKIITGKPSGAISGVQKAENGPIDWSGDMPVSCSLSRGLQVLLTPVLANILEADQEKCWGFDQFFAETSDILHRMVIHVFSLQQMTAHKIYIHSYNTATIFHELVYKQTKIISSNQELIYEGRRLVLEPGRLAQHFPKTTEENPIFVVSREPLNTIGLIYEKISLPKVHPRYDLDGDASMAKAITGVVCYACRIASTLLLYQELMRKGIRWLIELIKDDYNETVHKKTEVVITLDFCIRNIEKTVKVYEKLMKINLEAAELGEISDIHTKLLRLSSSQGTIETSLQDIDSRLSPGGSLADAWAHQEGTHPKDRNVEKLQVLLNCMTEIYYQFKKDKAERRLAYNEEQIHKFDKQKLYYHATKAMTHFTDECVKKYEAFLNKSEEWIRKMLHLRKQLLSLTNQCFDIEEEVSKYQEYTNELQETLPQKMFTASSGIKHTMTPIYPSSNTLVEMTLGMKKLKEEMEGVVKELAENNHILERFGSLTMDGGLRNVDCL
Cyclin-dependent kinase 5 (Homo sapiens), sequence (Q00535 whole entry, looked up): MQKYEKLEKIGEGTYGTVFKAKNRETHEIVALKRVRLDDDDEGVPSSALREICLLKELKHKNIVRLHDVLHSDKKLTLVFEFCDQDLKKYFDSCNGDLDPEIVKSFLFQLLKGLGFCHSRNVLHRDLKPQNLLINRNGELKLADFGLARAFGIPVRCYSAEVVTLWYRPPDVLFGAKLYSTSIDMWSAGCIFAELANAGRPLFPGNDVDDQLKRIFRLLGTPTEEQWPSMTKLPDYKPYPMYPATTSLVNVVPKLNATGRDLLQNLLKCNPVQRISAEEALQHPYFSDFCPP

## CC(C)n1cc(-c2cc(-c3ccc(CN4CCOCC4)cc3)cnc2N)nn1
[1]
  inhibition: 7.6%
[2]
  IC50: 2.1 µM
[3]
  inhibition: 26.2%
[4]
  inhibition: 0.5%
[5]
  inhibition: 21.7%
[6]
  inhibition: 6.4%
[7]
  inhibition: 8.9%
[8]
  inhibition: 11%
[9]
  inhibition: 21.7%
[10]
  inhibition: -7.8%
